{"source": "paper PMC2765124", "about": "(Drug and alcohol dependence, 2009)", "key": {"[1]": {"system": "acetic acid-induced abdominal stretching in male ICR mice", "test": "acetic acid stretching test", "format": "in vivo, mouse", "settings": "for effect on abdominal stretching given alone: 3 mg/kg i.p.; for antinociceptive effect given alone (abdominal stretching): 1 h before acetic acid; for blockade of the antinociceptive effects of Δ9-THC: antagonist 3 mg/kg i.p. 10 min before Δ9-THC 3 mg/kg s.c.; for blockade of the antinociceptive effects of Δ9-THC by THCV: THCV 50 mg/kg s.c. with Δ9-THC 3.0 mg/kg s.c."}, "[2]": {"system": "locomotor activity of male ICR mice", "test": "spontaneous locomotor activity", "format": "in vivo, mouse", "settings": "for % Time Immobile / Total Distance Traveled: 60 min before, 20 min, mean ± SEM"}, "CB1 receptor": {"target": "CB1 receptor (Rattus norvegicus, UniProt P20272)", "sequence (P20272 whole entry)": "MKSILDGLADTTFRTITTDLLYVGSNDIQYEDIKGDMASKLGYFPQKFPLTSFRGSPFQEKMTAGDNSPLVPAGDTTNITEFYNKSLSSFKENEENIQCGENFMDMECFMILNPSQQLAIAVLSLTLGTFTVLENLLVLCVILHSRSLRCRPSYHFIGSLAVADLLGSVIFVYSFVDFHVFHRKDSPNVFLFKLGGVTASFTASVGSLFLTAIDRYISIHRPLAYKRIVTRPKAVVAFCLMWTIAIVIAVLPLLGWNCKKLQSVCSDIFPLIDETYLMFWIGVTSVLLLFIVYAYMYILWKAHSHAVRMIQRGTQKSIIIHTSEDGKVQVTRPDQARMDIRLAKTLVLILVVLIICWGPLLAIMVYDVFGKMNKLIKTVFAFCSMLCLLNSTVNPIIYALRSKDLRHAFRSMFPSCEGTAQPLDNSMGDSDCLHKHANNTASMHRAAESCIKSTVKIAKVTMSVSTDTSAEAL", "test": "cannabinoid receptor binding, displacement of [3H]-CP-55,940 from whole brain"}}, "note": "Entries after “also recorded” stand apart in the source; their conditions may differ.", "data": [{"molecule": "CCCCCc1cc(O)c2c(c1)OC(C)(C)[C@@H]1CCC(C)=C[C@@H]21", "note": "[Δ^9-THC, Δ^9-tetrahydrocannabinol]", "values": [{"measurement": "ED50", "setting": "[1]; Mus musculus, read-out: ED50, suppression of abdominal stretching", "value": 1.1, "unit": "mg/kg"}, {"measurement": "minimal (required) dose that produced antinociception", "setting": "[1]; s.c.", "value": 1, "unit": "mg/kg"}, {"measurement": "% Time Immobile", "setting": "[2]; 1.0 mg/kg s.c.", "value": "11.2 ± 2.2", "unit": "%"}, {"measurement": "Total Distance Traveled", "setting": "[2]; 1.0 mg/kg s.c.", "value": "41.79 ± 2.63", "unit": "m"}, {"measurement": "% Time Immobile", "setting": "[2]; 3.0 mg/kg s.c.", "value": "21.5 ± 5.0", "unit": "%"}, {"measurement": "Total Distance Traveled", "setting": "[2]; 3.0 mg/kg s.c.", "value": "43.59 ± 4.70", "unit": "m"}, {"measurement": "effect on locomotor activity", "setting": "[2]; 3 mg/kg s.c., 60 min pretreatment, compared to vehicle", "value": "did not significantly interfere with locomotor activity"}, {"measurement": "% Time Immobile", "setting": "[2]; 10.0 mg/kg s.c.", "value": "37.6 ± 9.2", "unit": "%"}, {"measurement": "Total Distance Traveled", "setting": "[2]; 10.0 mg/kg s.c.", "value": "45.86 ± 7.76", "unit": "m"}, {"measurement": "% Time Immobile", "setting": "[2]; 50.0 mg/kg s.c.", "value": "49.0 ± 6.8", "unit": "%"}, {"measurement": "Total Distance Traveled", "setting": "[2]; 50.0 mg/kg s.c.", "value": "35.34 ± 3.61", "unit": "m"}, {"measurement": "effect on mobility", "setting": "[2]; doses less than 50 mg/kg s.c.", "value": "did not impair mobility"}]}, {"molecule": "SR144528", "values": [{"measurement": "effect on abdominal stretching given alone", "setting": "[1]", "value": "did not significantly affect abdominal stretching behavior; also recorded: Neither"}]}, {"molecule": "C=C(C)[C@@H]1CCC(C)=C[C@H]1c1c(O)cc(CCCCC)cc1O", "note": "[CBD, cannabidiol]", "values": [{"measurement": "antinociceptive effect given alone (abdominal stretching)", "setting": "[1]; high doses, s.c.", "value": "did not produce antinociceptive effects"}]}, {"molecule": "CCCCCc1cc(O)c2c(c1)OC(C)(CCC=C(C)C)C=C2", "note": "(centres unmarked) [CBC, cannabichromene]", "values": [{"measurement": "antinociceptive effect given alone (abdominal stretching)", "setting": "[1]; high doses, s.c.", "value": "did not produce antinociceptive effects"}]}, {"molecule": "Cc1c(C(=O)NN2CCCCC2)nn(-c2ccc(Cl)cc2Cl)c1-c1ccc(Cl)cc1", "note": "[rimonabant]", "values": [{"measurement": "effect on abdominal stretching given alone", "setting": "[1]", "value": "did not significantly affect abdominal stretching behavior; also recorded: Neither"}, {"measurement": "blockade of the antinociceptive effects of CBN", "setting": "[1]; antagonist 3 mg/kg i.p. 10 min before CBN 50 mg/kg s.c.", "value": "blocked by rimonabant; also recorded: significantly blocked the antinociceptive effects"}, {"measurement": "blockade of the antinociceptive effects of Δ9-THC", "setting": "[1]", "value": "blocked the antinociceptive effects"}, {"measurement": "blockade of the antinociceptive effects of Δ9-THC", "setting": "[1]; listed as Rimonabant", "value": "significantly blocked"}]}, {"molecule": "CCCCCc1cc(O)c2c(c1)OC(C)(C)c1ccc(C)cc1-2", "note": "[CBN, cannabinol]", "values": [{"measurement": "antinociceptive effect given alone (abdominal stretching)", "setting": "[1]; 20 mg/kg s.c.", "value": "not at 20 mg/kg"}, {"measurement": "antinociceptive effect given alone (abdominal stretching)", "setting": "[1]; 50 mg/kg s.c.", "value": "significant antinociceptive effects; also recorded: significantly suppressed the stretching response"}, {"measurement": "minimal (required) dose that produced antinociception", "setting": "[1]; s.c.", "value": 50, "unit": "mg/kg"}, {"measurement": "effect on locomotor activity", "setting": "[2]; 50 mg/kg s.c., 60 min before recording", "value": "failed to inhibit locomotor activity; also recorded: did not affect mobility"}, {"measurement": "% Time Immobile", "setting": "[2]; 50.0 mg/kg s.c.", "value": "17.6 ± 2.9", "unit": "%"}, {"measurement": "Total Distance Traveled", "setting": "[2]; 50.0 mg/kg s.c.", "value": "39.02 ± 7.75", "unit": "m"}, {"measurement": "affinity at the CB1 receptor, fold lower than the affinity of Δ9-THC", "setting": "CB1 receptor", "value": "2–3 fold"}]}, {"molecule": "CCCc1cc(O)c2c(c1)OC(C)(C)[C@@H]1CC=C(C)C[C@@H]21", "note": "[THCV, Δ^8-tetrahydrocannabivarin]", "values": [{"measurement": "antinociceptive effect given alone (abdominal stretching)", "setting": "[1]; 50 mg/kg s.c.", "value": "had no affect on the frequency of stretching behavior; also recorded: failed to elicit antinociceptive effects; also recorded: had no effects on its own"}, {"measurement": "blockade of the antinociceptive effects of Δ9-THC by THCV", "setting": "[1]", "value": "blocked the antinociceptive effects of Δ^9-THC"}, {"measurement": "blockade of the antinociceptive effects of Δ9-THC by THCV", "setting": "[1]; listed as THC-V", "value": "significantly antagonized the antinociceptive effects"}]}]}
